# Laboratory results reported in patent publication US8859559B2, “Substituted pyrazines and their use in the treatment of disease” (Boehringer Ingelheim International GmbH, priority 2011, dated 2014).
# Molecular target: T1, ENaC (Epithelial Sodium Channel) (Mus musculus, UniProt Q61180+Q9WU38+Q9WU39)
# T1 construct: Mouse kidney M-1 cells were cultivated in DMEM; endogenous in cells; host or cells: Mouse kidney M-1 cells (dexamethasone-treated, on transwell filters)
# T1 sequence (Q61180 1-699): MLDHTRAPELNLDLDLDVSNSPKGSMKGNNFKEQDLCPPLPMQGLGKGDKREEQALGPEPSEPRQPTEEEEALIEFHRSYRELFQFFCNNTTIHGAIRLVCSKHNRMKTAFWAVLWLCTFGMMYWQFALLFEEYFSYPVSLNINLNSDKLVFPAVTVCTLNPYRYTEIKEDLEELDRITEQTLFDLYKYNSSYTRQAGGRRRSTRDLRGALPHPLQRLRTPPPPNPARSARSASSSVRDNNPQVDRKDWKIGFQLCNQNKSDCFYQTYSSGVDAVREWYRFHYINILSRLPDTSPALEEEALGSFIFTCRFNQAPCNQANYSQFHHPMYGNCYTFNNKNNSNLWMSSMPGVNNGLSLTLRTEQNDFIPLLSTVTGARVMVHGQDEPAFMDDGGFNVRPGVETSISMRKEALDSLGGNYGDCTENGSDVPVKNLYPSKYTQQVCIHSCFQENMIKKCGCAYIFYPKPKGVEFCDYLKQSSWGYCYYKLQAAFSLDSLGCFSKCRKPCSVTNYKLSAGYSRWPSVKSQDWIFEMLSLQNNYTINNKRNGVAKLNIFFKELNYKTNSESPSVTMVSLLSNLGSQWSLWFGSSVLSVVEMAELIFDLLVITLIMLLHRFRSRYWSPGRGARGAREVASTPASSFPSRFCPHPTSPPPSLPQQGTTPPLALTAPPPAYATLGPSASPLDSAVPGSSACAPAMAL
# T1 sequence (Q9WU38 1-638): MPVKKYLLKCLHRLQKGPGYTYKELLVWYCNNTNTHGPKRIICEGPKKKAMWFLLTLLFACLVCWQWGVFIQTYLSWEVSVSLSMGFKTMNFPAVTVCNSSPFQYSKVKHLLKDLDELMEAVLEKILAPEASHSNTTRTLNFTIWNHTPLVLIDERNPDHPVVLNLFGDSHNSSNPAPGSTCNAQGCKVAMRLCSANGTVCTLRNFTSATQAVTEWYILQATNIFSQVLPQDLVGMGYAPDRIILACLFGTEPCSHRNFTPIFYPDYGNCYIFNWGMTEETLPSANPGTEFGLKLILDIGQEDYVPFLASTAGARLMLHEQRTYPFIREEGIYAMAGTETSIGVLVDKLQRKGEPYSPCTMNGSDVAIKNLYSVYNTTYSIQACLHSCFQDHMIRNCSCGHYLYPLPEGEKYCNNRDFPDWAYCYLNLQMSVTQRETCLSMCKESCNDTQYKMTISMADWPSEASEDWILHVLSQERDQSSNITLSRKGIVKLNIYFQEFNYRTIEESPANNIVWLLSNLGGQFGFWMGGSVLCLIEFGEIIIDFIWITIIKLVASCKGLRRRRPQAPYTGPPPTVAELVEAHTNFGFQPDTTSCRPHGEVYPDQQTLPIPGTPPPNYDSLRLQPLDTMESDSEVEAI
# T1 sequence (Q9WU39 1-655): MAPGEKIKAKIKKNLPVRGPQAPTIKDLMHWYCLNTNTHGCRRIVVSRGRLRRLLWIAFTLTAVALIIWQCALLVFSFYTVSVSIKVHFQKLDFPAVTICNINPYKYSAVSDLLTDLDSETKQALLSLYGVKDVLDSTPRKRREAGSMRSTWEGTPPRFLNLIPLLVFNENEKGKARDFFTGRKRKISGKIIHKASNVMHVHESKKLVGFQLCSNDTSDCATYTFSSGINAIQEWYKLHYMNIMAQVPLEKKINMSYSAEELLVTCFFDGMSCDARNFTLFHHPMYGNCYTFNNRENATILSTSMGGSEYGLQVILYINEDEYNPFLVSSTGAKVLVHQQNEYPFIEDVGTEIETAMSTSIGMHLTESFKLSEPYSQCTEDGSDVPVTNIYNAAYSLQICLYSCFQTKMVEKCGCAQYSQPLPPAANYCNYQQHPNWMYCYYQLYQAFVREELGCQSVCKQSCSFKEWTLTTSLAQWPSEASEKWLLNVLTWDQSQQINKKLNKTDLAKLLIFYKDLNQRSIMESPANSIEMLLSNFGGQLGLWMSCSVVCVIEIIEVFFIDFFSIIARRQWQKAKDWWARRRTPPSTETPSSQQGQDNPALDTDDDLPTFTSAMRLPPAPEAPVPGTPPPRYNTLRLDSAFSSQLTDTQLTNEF
# Experiment: Ussing chamber: inhibition of amiloride sensitive short circuit current (I_sc) in M-1 cells
# Type: cell-based
# Settings: mouse kidney M-1 cells
# Procedure: Mouse kidney M-1 cells were cultivated in DMEM containing 5% FCS and 5 μM dexamethasone for 10 to 12 days on polyester transwell filters. Filters were inserted into a teflon-coated well-plate which fit into the in-house ussing chamber system. Prior to measurement the medium of M-1 cells was replaced with Caco-2 transport buffer (Invitrogen, Germany). During measurements, the Ussing chamber temperature was kept at 37° C. Short circuit currents (I_sc) were measured in the voltage-clamp mode using an in-house built amplifier (Boehringer Ingelheim, Biberach) with the software package Lab View for data acquisition and analysis. The transepithelial electrical resistance (TEER) was determined by the application of voltage steps of ±5 mV every 5 sec. Compounds were administered at a final concentration of 3 μM or at increasing concentrations (1-3-10 μM) to the apical solution. At the end of each experiment the amiloride sensitive I_SC was measured by adding 3 μM amiloride to the apical compartment. Results are expressed as inhibition in percent of the amiloride effect or as IC50. With the example compounds given above, the following IC50 values were determined in the Ussing Chamber assay: […]
row,SMILES,IC50
1,NC(=NC(=O)c1nc(Cl)c(N)nc1N)NC1CCN(Cc2ccc(OCc3cn(CCOCCOCCO)nn3)cc2)CC1 [Example 3.24],0.025 µM
2,NC(=NC(=O)c1nc(Cl)c(N)nc1N)NC1CCN(Cc2ccc(C(=O)NCCc3cn(CCCO)cn3)cc2)CC1 [Example 1.52],0.002 µM
3,COc1cc(C(=O)O)ccc1CN1CCC(NC(N)=NC(=O)c2nc(Cl)c(N)nc2N)CC1 [Example 8.9],0.074 µM
4,NC(=NC(=O)c1nc(Cl)c(N)nc1N)N[C@H]1CCN(Cc2ccc(OCC(=O)O)cc2)C1 [Example 8.16],0.031 µM
5,COC(=O)C(c1ccccc1)N1CCC(NC(N)=NC(=O)c2nc(Cl)c(N)nc2N)CC1 (stereo not shown) [Example 1.37],0.017 µM
6,COC(=O)c1ccccc1CN1CCC(NC(N)=NC(=O)c2nc(Cl)c(N)nc2N)CC1 [Example 1.43],0.015 µM
7,NC(=NC(=O)c1nc(Cl)c(N)nc1N)NC1CCN(Cc2ccc(-c3cn(CCOCCOCCOCCO)nn3)cc2)CC1 [Example 3.26],0.008 µM
8,NC(=NC(=O)c1nc(Cl)c(N)nc1N)NC1CCN(Cc2ccc(C(=O)O)cc2Cl)CC1 [Example 8.11],0.05 µM
9,NC(=NC(=O)c1nc(Cl)c(N)nc1N)NC1CCN(Cc2cccc(C(=O)NCCOCCO)c2)CC1 [Example 1.65],0.004 µM
10,NC(=NC(=O)c1nc(Cl)c(N)nc1N)NC1CCN(Cc2ccc(C(=O)NCCOCCOCCO)cc2)CC1 [Example 1.39],0.006 µM
11,CN(Cc1cn(CCc2ccc(CN3CCC(NC(N)=NC(=O)c4nc(Cl)c(N)nc4N)CC3)cc2)nn1)C(=O)CCNCCOCCOCCOCCOC(c1ccccc1)(c1ccccc1)c1ccccc1 [Example 3.6],0.001 µM
12,"NC(=NC(=O)c1nc(Cl)c(N)nc1N)NC1CC2CCC(C1)N2Cc1ccccc1 (single isomer, unassigned) [Example 1.27]",0.049 µM
13,COC(=O)c1ccc(CN2CCC(N/C(N)=N/C(=O)c3nc(Cl)c(N)nc3N)CC2)c(OC)c1 [Example 1.1],0.005 µM
14,NC(=NC(=O)c1nc(Cl)c(N)nc1N)NC1CCN(Cc2ccc(-c3cn(CCOCCOCCOCCOCCOCCOCCOCCO)nn3)cc2)CC1 [Example 3.29],0.012 µM
15,NC(=NC(=O)c1nc(Cl)c(N)nc1N)NC1CCN(Cc2cccc(-c3cn(CCOCCOCCOCCO)nn3)c2)CC1 [Example 3.36],0.004 µM
16,N/C(=N\C(=O)c1nc(Cl)c(N)nc1N)NC1CCN(Cc2ccc(OCc3cn(CCOCCOCCOCCOCCOCCO)nn3)cc2)CC1 [Example 5.1],0.042 µM
17,NC(=NC(=O)c1nc(Cl)c(N)nc1N)NC1CCN(Cc2cccc(-c3cn(CCOCCOCCOCCOCCOCCO)nn3)c2)CC1 [Example 5.9],0.01 µM
18,COc1ccc(C(=O)CN2CCC(NC(N)=NC(=O)c3nc(Cl)c(N)nc3N)CC2)cc1 [Example 1.20],0.011 µM
19,COC(=O)c1ccc(CN2CCC(C)(NC(N)=NC(=O)c3nc(Cl)c(N)nc3N)CC2)cc1 [Example 1.17],0.066 µM
20,COC(=O)c1ccc(CN2CCC(N/C(N)=N/C(=O)c3nc(Cl)c(N)nc3N)CC2)c(Cl)c1 [Example 1.12],0.004 µM
21,COC(=O)COc1ccc(CN2CCC(N/C(N)=N/C(=O)c3nc(Br)c(N)nc3N)CC2)cc1 [Example 1.68],0.011 µM
22,CCOC(=O)c1ccc(=O)n(-c2ccc(CN3CCC(NC(N)=NC(=O)c4nc(Cl)c(N)nc4N)CC3)cc2)c1 [Example 1.16],0.017 µM
23,[N-]=[N+]=NCCOCCOCCOCCN(CCOCCOCCO)C(=O)c1ccc(=O)n(Cc2ccc(CN3CCC(NC(N)=NC(=O)c4nc(Cl)c(N)nc4N)CC3)cc2)c1 [Example 1.56],0.024 µM
24,N/C(=N\C(=O)c1nc(Cl)c(N)nc1N)NC1CCN(Cc2ccc(-c3cn(CCOCCOCCO)nn3)cc2)CC1 [Example 5.4],0.003 µM
25,NC(=NC(=O)c1nc(Cl)c(N)nc1N)NC1CCN(Cc2ccc(-c3cn(CCOCCOCCOCCNCCOCCOCCO)nn3)cc2)CC1 [Example 3.35],0.004 µM
26,COCCOc1ccc(C(=O)NCCOCCOCCNC(=O)c2ccc(CN3CCC(NC(N)=NC(=O)c4nc(Cl)c(N)nc4N)CC3)cc2)cc1 [Example 1.49],0.006 µM
27,COC(=O)COc1ccc(CN2CCC(NC(N)=NC(=O)c3nc(Cl)c(N)nc3N)CC2)cc1OCC(=O)OC [Example 1.53],0.007 µM
28,NC(=NC(=O)c1nc(Cl)c(N)nc1N)NC1CCN(Cc2ccc(CCn3cc(CCC(=O)N4CCOCC4)nn3)cc2)CC1 [Example 3.43],0.015 µM
29,NC(=NC(=O)c1nc(Cl)c(N)nc1N)NC1CCN(Cc2ccc(-n3cc(CCC(=O)N(CCO)CCO)nn3)cc2)CC1 [Example 3.12],0.005 µM

# The next lines start with the values.
row,IC50,SMILES
1,0.165 µM,NC(=NC(=O)c1nc(Cl)c(N)nc1N)N[C@H]1CCCN(Cc2ccc(C(=O)O)cc2)C1 [Example 1.60]
2,0.007 µM,COCCOc1ccc(CCc2ccc(CN3CCC(NC(N)=NC(=O)c4nc(Cl)c(N)nc4N)CC3)cc2)nn1 [Example 1.58]
3,0.243 µM,NC(=NC(=O)c1nc(Cl)c(N)nc1N)NC1CCN(Cc2ccccc2C(=O)O)CC1 [Example 8.7]
4,0.009 µM,CN(Cc1cn(CCc2ccc(CN3CCC(N/C(N)=N/C(=O)c4nc(Cl)c(N)nc4N)CC3)cc2)nn1)C(=O)CCN [Example 4.1]
5,0.044 µM,NC(=NC(=O)c1nc(Cl)c(N)nc1N)NC1CCN(Cc2ccc(CC(=O)O)cc2)CC1 [Example 8.13]
6,0.087 µM,NC(=NC(=O)c1nc(Cl)c(N)nc1N)N[C@@H]1CCCN(Cc2ccc(C(=O)O)cc2)C1 [Example 1.62]
7,0.024 µM,NC(=NC(=O)c1nc(Cl)c(N)nc1N)NC1CCN(Cc2cccc(CC(=O)O)c2)CC1 [Example 8.10]
8,0.005 µM,CN(C)CCCOc1ccc(CN2CCC(NC(N)=NC(=O)c3nc(Cl)c(N)nc3N)CC2)cc1 [Example 1.34]
9,0.003 µM,NC(N)=NCc1ccc(CN2CCC(N/C(N)=N/C(=O)c3nc(Cl)c(N)nc3N)CC2)cc1 [Example 10.1]
10,0.004 µM,[N-]=[N+]=NCCc1ccc(CN2CCC(NC(N)=NC(=O)c3nc(Cl)c(N)nc3N)CC2)cc1 [Example 1.3]
11,0.007 µM,CN(C)Cc1cn(CCc2ccc(CN3CCC(NC(N)=NC(=O)c4nc(Cl)c(N)nc4N)CC3)cc2)nn1 [Example 3.4]
12,0.01 µM,COC(=O)CCc1ccc(CN2CCC(NC(N)=NC(=O)c3nc(Cl)c(N)nc3N)CC2)cc1 [Example 1.45]
13,0.002 µM,N=C(N)c1ccc(CN2CCC(NC(N)=NC(=O)c3nc(Cl)c(N)nc3N)CC2)cc1 [Example 1.55]
14,0.007 µM,N/C(=N\C(=O)c1nc(Cl)c(N)nc1N)NC1CCN(Cc2ccc(O)cc2)CC1 [Example 1.31]
